Experimental data: paper PMC6387968, “An in vitro ADME and in vivo Pharmacokinetic Study of Novel TB-Active Decoquinate Derivatives” (Frontiers in Pharmacology, 2019)

Tests used:
[1] = physchem; format: physicochemical; details: pH 7.4
Protocol: The plate was agitated for 2 h at 22°C and 500 rpm. […] The different layers were analyzed to obtain a logD value.

[2] = format: in vitro ADME; details: pH 7.4
Protocol: The permeability of the compounds was assessed via a PAMPA using a 96-well multiscreen filter plate ([…]). The filter plate was coated with 5% hexadecane in hexane and was allowed to dry before starting the assay. Lucifer yellow was added to the apical side of the filter plate in each well containing test compound solutions prepared in DMSO. A solution of each compound was diluted into phosphate buffer at pH 7.4 (final concentration = 1 μg/mL) and was added to the apical portion of the donor plate. The acceptor plate was filled with blank buffer (pH 7.4). The plates were slotted into each other and agitated at 80 rpm for 4 h at 22°C. Samples from donor and theoretical equilibrium wells were matrix-matched with blank phosphate buffer at pH 7.4. Samples were treated with ACN containing IS (carbamazepine, 23.6 ng/mL) and were submitted for LC-MS/MS analysis on an Agilent Rapid Resolution HPLC and AB Sciex 4500 MS. […] [Wohnsland and Faller, 2001]; [Jung et al., 2006]). where, VA is the volume of the acceptor compartment (0.25 cm^3), VD is the volume of the donor compartment (0.15 cm^3), A is the accessible filter area (0.024 cm^2), and t is the incubation time (s). The peak areas of the samples were used to determine the Papp of each compound using Eq. 3. Papp=C × -ln(1-Acceptor […]/Donor […])

[3] = in vivo; parameters: species or system male C57BL/6 mice; details: for Vd / clearance / half-life / t1/2 / Cmax / Tmax: male, C57BL/6, mouse; for AUC: mouse
Protocol: Healthy male C57BL/6 mice, 12 to 16 weeks old, weighing approximately 30 g, were maintained at the animal facility of the University of Cape Town. Mice were fed a standard laboratory diet and water ad libitum. Mice were housed in 27 × 21 × 18 cm cages, under controlled environmental conditions (26 ± 1°C with 12-h light/dark cycles). Mice were acclimatized to their experimental environment for 4 days before the experiment started.
Clear suspensions of RMB041, -043, and -073 were prepared in […] hydroxypropyl methylcellulose and administered via oral gavage (20 mg/kg, volume = 200 μL, n = 3). Blood samples (20 μL) were collected on ice in heparinized microvials via tail bleeding at 0, 0.5, 1, 3, 5, 8, 10, 24, and 48 h following drug administration and stored at -80°C.
Solutions for IV injection (5 mg/kg) were prepared using a mixture of dimethyl acetamide, polyethylene glycol, and polypropylene glycol (1:3:6, v/v) and were injected into the penile vein (80 μL) following anesthesia of mice with intraperitoneal injection (IP) of ketamine/xylazine (75–100 mg/kg + 10 mg/kg; n = 3). Blood samples were collected on ice in heparinized microvials via tail bleeding at 0.083, 0.5, 1, 3, 5, 8, 10, 24, and 48 h following drug administration and stored at -80°C.
Mouse whole-blood samples (20 μL) were each treated with 100 μL ACN containing IS (carbamazepine, 1 μg/mL) to precipitate blood proteins, and were subjected to vigorous vortexing for 1 min and centrifugation at 5590 × g for 5 min. The supernatant layer containing compound (50 μL) was removed from each sample and added to the analysis plate. Thereafter, samples were dried down under nitrogen. A solution of ACN and water (1:1, v:v, 100 μL) was added to each well, and samples were analyzed via LC-MS/MS.
To determine compound concentrations in mouse whole-blood samples, seven calibration samples (range 0.980 to 4000 ng/mL), as well as low-, medium-, and high-concentration quality control (QC) samples (3, 1600, and 3200 ng/mL, respectively) were prepared in mouse blood and subjected to ACN precipitation as described above, in triplicate. Calibration, QC, and test samples were analyzed via LC-MS/MS. Calibration samples were used to plot standard curves, from which test sample concentrations were calculated via quadratic regression (weighting factor = 1/x).
A reverse-phase HPLC column (Gemini NX, C18, 2.6 μm, 50 × 2.1 mm, Phenomenex) was used to separate the compounds and IS (mobile phase B, 0.1% FA in ACN; mobile phase A, 0.1% FA in analytical-grade water). Auto-sampling was performed using an Agilent 1200 series auto-sampler. Data acquisition and evaluation were performed using the Analyst 1.6.2 software (Applied Biosystems, Foster City, CA, United States).
Plots of concentration against time were used to determine the maximal drug concentration (Cmax), time at which Cmax is reached (Tmax), area-under-the-curve from time zero to infinity (AUC0-∞), and the elimination half-life (t1/2). Using these values, the clearance, volume of distribution, and oral bioavailability (BA) were calculated using the non-compartmental analysis (NCA) software PK Solutions version 2.0 (Summit Research Services, Montrose, CO, United States).
The drug concentrations indicated in Figure 2–7 were used to calculate the PK parameters in Table 6 via NCA. Here, the area under the murine whole-blood concentration-time graph is divided into sequential trapezoids that are summed to determine the AUC, which is used to determine t1/2, apparent volume of distribution (Vd), clearance, and percentage BA.

In the case of CCCCCCCCCCOc1cc2c(=O)c(C(=O)NCCOCCO)cn(CC)c2cc1OCC [RMB041], the logD [1] is reported as 0.48, the “PAMPA Log Papp” value [2] is reported as -4.8 and the Vd ([3]; iv, 5 mg/kg) is reported as 1.2 ± 0.03 L/kg. The clearance ([3]; iv, 5 mg/kg) was 0.385 mL/min/kg, the half-life ([3]; iv, 5 mg/kg) was 62.3 ± 6.73 h and the “t1/2” value ([3]; iv, 5 mg/kg) was 62.3 ± 6.7 h. The Cmax ([3]; po, 20 mg/kg) was 5.4 ± 0.4 µM, the Tmax ([3]; po, 20 mg/kg) was 0.5 h and the half-life ([3]; po, 20 mg/kg) was 23.4 ± 2.5 h. It also gave an AUC ([3]; iv, 5 mg/kg) of 29250.4 ± 309.0 µmol·min/L.

With CCCCCCCCCCOc1cc2c(=O)c(C(=O)NCCNCCO)cn(CC)c2cc1OCC [RMB043] the logD [1] was 0.84, the “PAMPA Log Papp” value [2] was -4.8 and the Vd ([3]; iv, 5 mg/kg) was 4.6 ± 1.6 L/kg. For the same compound, the clearance ([3]; iv, 5 mg/kg) was 1.18 mL/min/kg, the half-life ([3]; iv, 5 mg/kg) was 8.6 ± 0.4 h and the “t1/2” value ([3]; iv, 5 mg/kg) was 8.6 ± 0.4 h. It also gave a Cmax ([3]; po, 20 mg/kg) of 5.6 ± 1.4 µM, a Tmax ([3]; po, 20 mg/kg) of 0.5 h and a half-life ([3]; po, 20 mg/kg) of 6.2 ± 0.8 h. For the same compound, the AUC ([3]; iv, 5 mg/kg) was 10068.4 ± 127.8 µmol·min/L.

In the case of CCCCCCCCCCOc1cc2c(=O)c(C(=O)NCCOCCO)cn(CCO)c2cc1OCC [RMB073], the logD [1] is reported as 0.36, the “PAMPA Log Papp” value [2] is reported as -4.5 and the Vd ([3]; iv, 5 mg/kg) is reported as 3.9 ± 0.5 L/kg. The clearance ([3]; iv, 5 mg/kg) was 0.575 mL/min/kg, the half-life ([3]; iv, 5 mg/kg) was 15.3 ± 3.2 h and the “t1/2” value ([3]; iv, 5 mg/kg) was 15.3 ± 3.2 h. It also gave a Cmax ([3]; po, 20 mg/kg) of 2 ± 0.03 µM, a Tmax ([3]; po, 20 mg/kg) of 0.5 h and a half-life ([3]; po, 20 mg/kg) of 11.6 ± 1.3 h. The AUC ([3]; iv, 5 mg/kg) was 15940.0 ± 400.0 µmol·min/L.
